For orientation: IC50 means the concentration needed to halve the response being measured.

SMILES strings stand for the structures. Where two headings read alike, the source gives them in different places.

One assay deals with BTK (Homo sapiens (Human), UniProt Q06187). Nature of the assay: In Vitro BTK Kinase Assay: Btk-PolyGAT-LS Assay. Type of assay: biochemical. Conditions: BTK enzyme 0.25 nM, ATP 10 μM, polyGAT 100 nM, 30 minutes incubation, TRF readout. The essentials: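 Human BTK activity was measured with final 10 μM ATP and 100 nM polyGAT substrate in pH 7.5 Tris buffer with 10 mM MgCl2, DTT, Triton X-100 and casein.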
Chain of BTK (Q06187 whole entry): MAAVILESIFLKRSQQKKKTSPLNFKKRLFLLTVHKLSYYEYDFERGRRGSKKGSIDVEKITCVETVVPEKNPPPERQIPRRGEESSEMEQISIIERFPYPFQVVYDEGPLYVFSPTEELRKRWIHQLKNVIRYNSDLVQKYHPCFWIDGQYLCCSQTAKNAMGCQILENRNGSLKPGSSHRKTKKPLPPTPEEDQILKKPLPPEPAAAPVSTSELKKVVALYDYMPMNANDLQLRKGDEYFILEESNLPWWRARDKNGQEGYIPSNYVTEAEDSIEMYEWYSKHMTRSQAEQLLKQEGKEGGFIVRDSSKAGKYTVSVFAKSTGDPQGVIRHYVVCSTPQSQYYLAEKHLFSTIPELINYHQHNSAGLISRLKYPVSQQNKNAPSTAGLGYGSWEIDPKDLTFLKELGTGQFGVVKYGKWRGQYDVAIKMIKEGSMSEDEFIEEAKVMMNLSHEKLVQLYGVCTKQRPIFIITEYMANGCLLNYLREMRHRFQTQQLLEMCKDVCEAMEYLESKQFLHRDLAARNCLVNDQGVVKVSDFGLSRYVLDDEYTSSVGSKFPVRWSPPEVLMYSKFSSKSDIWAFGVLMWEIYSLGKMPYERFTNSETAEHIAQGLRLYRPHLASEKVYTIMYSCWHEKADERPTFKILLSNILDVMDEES

Assay [1] concerns CD69 expression on CD19+ B cells in human whole blood stimulated with anti-human IgD. Nature of the assay: In Vitro whole blood CD69 Assay. Format: cell-based. As to conditions: human heparinized whole blood, anti-human IgD stimulation overnight, percentage of CD19+ B cells expressing CD69, flow cytometry. (In flow cytometry, cells or beads pass a laser one at a time.)
The mark [2] stands for this setting: Homo sapiens, B-cell, read-out: IC50.

Take `CN[C@H]1C[C@@](C)(Oc2nc(-c3cnn(C)c3)cn3nccc23)C1(C)C` (racemic) [Example 139, racemic (1S,3R)—N,2,2,3-tetramethyl-3-((6-(1-methyl-1H-pyrazol-4-yl)pyrazolo[1,5-a]pyrazin-4-yl)oxy)cyclobutan-1-amine]: the IC50 on BTK (read-out: IC50) is below 1 nM; in assay [1] (read-out: IC50) it was below 1000 nM.

`CN(C(=O)/C=C/C#N)[C@H]1CC[C@@H](Oc2nc(-c3cnn(C)c3)cn3nccc23)C1` (racemic) [Example 150, rac-(E)-3-cyano-N-methyl-N-((1R,3S)-3-((6-(1-methyl-1H-pyrazol-4-yl)pyrazolo[1,5-a]pyrazin-4-yl)oxy)cyclopentyl)acrylamide]: the values for the IC50 (on BTK (read-out: IC50); in assay [1] (setting [2])) were below 1 nM and below 1000 nM, respectively.

Take `C=CC(=O)N(C)[C@H]1CC[C@@H]1COc1nc(-c2cnn(C)c2)cn2nccc12` (relative stereo) [Example 129, trans-N-methyl-N-(2-(((6-(1-methyl-1H-pyrazol-4-yl)pyrazolo[1,5-a]pyrazin-4-yl)oxy)methyl)cyclobutyl)acrylamide]: the IC50 lay in the range of 10 to 1000 nM on BTK (read-out: IC50) and 1000 to 10000 nM in assay [1] (setting [2]).

Regarding `C#CC(=O)NCC1CCCCN1c1nc(-c2cnn(C)c2)cn2nccc12` (single isomer, unassigned) [Example 26 E1, N-[[1-[6-(1-methylpyrazol-4-yl)pyrazolo[1,5-a]pyrazin-4-yl]-2-piperidyl]methyl]prop-2-ynamide], the IC50 at BTK (read-out: IC50) was 10 to 1000 nM; in assay [1] (listed as 26 E1, read-out: IC50), above 10000 nM.

For `C#CC(=O)NCC1CCCCN1c1nc(-c2cnn(C)c2)cn2nccc12` (single isomer, unassigned) [Example 26 E2, N-[[1-[6-(1-methylpyrazol-4-yl)pyrazolo[1,5-a]pyrazin-4-yl]-2-piperidyl]methyl]prop-2-ynamide], the IC50 is below 1 nM on BTK (read-out: IC50) and below 1000 nM in assay [1] (listed as 26 E2, read-out: IC50).

As for `C=CC(=O)N1CCC[C@@H](Oc2nc(-c3cnn(C)c3)cc3nccn23)CC1` (single isomer, unassigned) [Example 34, (S) or (R)-1-(4-((7-(1-methyl-1H-pyrazol-4-yl)imidazo[1,2-c]pyrimidin-5-yl)oxy)azepan-1-yl)prop-2-en-1-one], the IC50 at BTK (read-out: IC50) is 1 to 10 nM; in assay [1] (setting [2]) it was below 1000 nM.

`C=CC(=O)N1CCC[C@H](Oc2nc(-c3ccc(=O)n(C)c3)cn3nccc23)CC1` (single isomer, unassigned) [Example 71 E1]: the IC50 on BTK (read-out: IC50) was 1 to 10 nM; in assay [1] (setting [2]), below 1000 nM.

In the case of `C=CC(=O)N1CCC[C@@H](Oc2nc(-c3ccc(=O)n(C)c3)cn3nccc23)CC1` (single isomer, unassigned) [Example 71 E2], the IC50 on BTK (read-out: IC50) was in the range of 10 to 1000 nM; in assay [1] (setting [2]), 1000 to 10000 nM.

Take `C=CC(=O)N1CCCC(Oc2nc(-c3ccnc(OC)c3)cn3nccc23)CC1` (single isomer, unassigned) [Example 72 E1, 1-(4-((6-(2-methoxypyridin-4-yl)pyrazolo[1,5-a]pyrazin-4-yl)oxy)azepan-1-yl)prop-2-en-1-one]: the IC50 at BTK (read-out: IC50) is below 1 nM; in assay [1] (setting [2]) it was 1000 to 10000 nM.

For the compound `C=CC(=O)N1C[C@H]2C[C@@H](C1)[C@@H]2COc1cc(-c2cnn(C)c2)cn2ncc(F)c12` (single isomer, unassigned) [Example 85, 1-((1R,5S,6r) or (1R,5S,6s)-6-(((3-fluoro-6-(1-methyl-1H-pyrazol-4-yl)pyrazolo[1,5-a]pyridin-4-yl)oxy)methyl)-3-azabicyclo[3.1.1]heptan-3-yl)prop-2-en-1-one], the IC50 on BTK (read-out: IC50) was below 1 nM; in assay [1] (read-out: IC50) it was below 1000 nM.

For `C=CC(=O)N(C)[C@@H]1C[C@@](C)(Oc2nc(-c3cnn(C)c3)cn3nccc23)[C@@H]1C` (single isomer, unassigned) [Example 107], the half-inhibitory concentration (IC50) on BTK (read-out: IC50) is 1 to 10 nM; in assay [1] (setting [2]), below 1000 nM.

For `C=CC(=O)N(C)[C@@H]1C[C@@](C)(Oc2nc(-c3cnn(C)c3)cn3nccc23)[C@H]1C` (single isomer, unassigned) [Example 108], the half-inhibitory concentration (IC50) on BTK (read-out: IC50) is below 1 nM; in assay [1] (Homo sapiens, B-cell), below 1000 nM.

In the case of `C=CC(=O)N(C)[C@H]1C[C@](C)(Oc2nc(-c3cnn(C)c3)cn3nccc23)[C@@H]1C` (single isomer, unassigned) [Example 109], the half-maximal inhibitory concentration (IC50) on BTK (read-out: IC50) is 1 to 10 nM; in assay [1] (Homo sapiens, B-cell), below 1000 nM.

Turning to `C=CC(=O)N(C)[C@H]1C[C@@](C)(Oc2nc(-c3cnn(C)c3)cn3nccc23)[C@H]1C` (single isomer, unassigned) [Example 110], the IC50 on BTK (read-out: IC50) is below 1 nM; in assay [1] (Homo sapiens, B-cell) it was below 1000 nM.

Turning to `C=CC(=O)N1CCC[C@H]2[C@@H]1C[C@@]2(C)Oc1nc(-c2cnn(C)c2)cn2nccc12` (single isomer, unassigned) [Example 111], the figures for the IC50 (at BTK (read-out: IC50); in assay [1] (setting [2])) were below 1 nM and below 1000 nM, respectively.

As for `CC#CC(=O)N(C)[C@H]1CC[C@@H]2C[C@]2(Oc2nc(-c3cnn(C)c3)cn3nccc23)C1` (single isomer, unassigned) [Example 113], the concentration for half-maximal inhibition (IC50) is 1 to 10 nM on BTK (read-out: IC50) and 1000 to 10000 nM in assay [1] (setting [2]).

Consider `CC#CC(=O)N(C)[C@@H]1CC[C@H]2C[C@@]2(Oc2nc(-c3cnn(C)c3)cn3nccc23)C1` (single isomer, unassigned) [Example 115], for which the values for the IC50 (on BTK (read-out: IC50); in assay [1] (setting [2])) were 1 to 10 nM and 1000 to 10000 nM, respectively.

Regarding `CC#CC(=O)N(C)[C@H]1CC[C@H]2C[C@@]2(Oc2nc(-c3cnn(C)c3)cn3nccc23)C1` (single isomer, unassigned) [Example 116], the IC50 is below 1 nM at BTK (read-out: IC50) and below 1000 nM in assay [1] (setting [2]).

Turning to `C=CC(=O)N1CCO[C@](C)(COc2nc(-c3cnn(C)c3)cn3nccc23)C1` (single isomer, unassigned) [Example 117, (S) or (R)-1-(2-methyl-2-(((6-(1-methyl-1H-pyrazol-4-yl)pyrazolo[1,5-a]pyrazin-4-yl)oxy)methyl)morpholino)prop-2-en-1-one], the IC50 on BTK (read-out: IC50) was 1 to 10 nM; in assay [1] (setting [2]), below 1000 nM.

`C=CC(=O)N1CCO[C@@](C)(COc2nc(-c3cnn(C)c3)cn3nccc23)C1` (single isomer, unassigned) [Example 118, (R) or (S)-1-(2-methyl-2-(((6-(1-methyl-1H-pyrazol-4-yl)pyrazolo[1,5-a]pyrazin-4-yl)oxy)methyl)morpholino)prop-2-en-1-one]: the values for the IC50 (at BTK (read-out: IC50); in assay [1] (setting [2])) were below 1 nM and below 1000 nM, respectively.

Consider `C=CC(=O)N1CC(C)(C)OC(C)(COc2nc(-c3cnn(C)c3)cn3nccc23)C1` (single isomer, unassigned) [Example 120, 1-(2,2,6-trimethyl-6-(((6-(1-methyl-1H-pyrazol-4-yl)pyrazolo[1,5-a]pyrazin-4-yl)oxy)methyl)morpholino)prop-2-en-1-one], for which the IC50 was below 1 nM at BTK (read-out: IC50) and below 1000 nM in assay [1] (setting [2]).

As to `CC#CC(=O)N1CC(C)(C)OC(C)(COc2nc(-c3cnn(C)c3)cn3nccc23)C1` (single isomer, unassigned) [Example 121, 1-(2,2,6-trimethyl-6-(((6-(1-methyl-1H-pyrazol-4-yl)pyrazolo[1,5-a]pyrazin-4-yl)oxy)methyl)morpholino)but-2-yn-1-one], the IC50 was 1 to 10 nM on BTK (read-out: IC50) and below 1000 nM in assay [1] (setting [2]).

For `C=CC(=O)N(C)[C@H]1C[C@@](C)(Oc2nc(-c3cnn(C)c3)cn3nccc23)C1(C)C` (single isomer, unassigned) [Example 140], the concentration for half-maximal inhibition (IC50) is below 1 nM at BTK (read-out: IC50) and below 1000 nM in assay [1] (Homo sapiens, B-cell).

On to `C=CC(=O)N(C)[C@H]1C[C@@](C)(Oc2nc(-c3cnn(C)c3)cn3nccc23)C1(C)C` (single isomer, unassigned) [Example 141], for which the IC50 at BTK (IC50 (nM)) fell in the range of 1 to 10 nM; in assay [1], 1000 to 10000 nM.

As for `C[C@@H]1O[C@H]1C(=O)N[C@H]1CC[C@@H](Oc2nc(-c3cnn(C)c3)cn3nccc23)C1` (single isomer, unassigned) [Example 148], the concentration for half-maximal inhibition (IC50) was 1 to 10 nM at BTK (read-out: IC50) and below 1000 nM in assay [1] (setting [2]).

Consider `C=CC(=O)N1CCC[C@@H](Nc2nc(-c3cnn(C)c3)cn3nccc23)CC1` (single isomer, unassigned) [Example 160], for which the half-inhibitory concentration (IC50) on BTK (read-out: IC50) was below 1 nM; in assay [1] (setting [2]), 1000 to 10000 nM.

With `C[C@H]1O[C@@H]1C(=O)N1CC[C@@H]2[C@H]1C[C@]2(C)Oc1nc(-c2cnn(C)c2)cn2nccc12` (single isomer, unassigned) [Example 193], the IC50 at BTK (read-out: IC50) is 1 to 10 nM; in assay [1] (setting [2]), 1000 to 10000 nM.

For `C=CC(=O)N1CC[C@@]2(CC[C@@H](Oc3nc(-c4cnn(C)c4)cn4nccc34)C2)C1` (single isomer, unassigned) [Example 207], the IC50 on BTK (read-out: IC50) fell in the range of 1 to 10 nM; in assay [1] (setting [2]) it was 1000 to 10000 nM.

Turning to `C#CC(=O)N1CCC(Oc2nc(-c3cnn(C)c3)cn3nccc23)CC1` [Example 1, 1-[4-[6-(1-methylpyrazol-4-yl)pyrazolo[1,5-a]pyrazin-4-yl]oxy-1-piperidyl]prop-2-yn-1-one], the results for the half-inhibitory concentration (IC50) (at BTK (read-out: IC50); in assay [1] (setting [2])) were 1 to 10 nM and above 10000 nM, respectively.

Turning to `C=CS(=O)(=O)N1CCC(Oc2nc(-c3cnn(C)c3)cn3nccc23)CC1` [Example 3, 6-(1-methyl-1H-pyrazol-4-yl)-4-((1-(vinylsulfonyl)piperidin-4-yl)oxy)pyrazolo[1,5-a]pyrazine], the values for the IC50 (on BTK (read-out: IC50); in assay [1] (setting [2])) were below 1 nM and above 10000 nM, respectively.

For the origin of these results see US20240083900A1, “PYRAZOLO[1,5-A]PYRAZINE DERIVATIVES AS BTK INHIBITORS” (BIOGEN MA INC., priority 2020, published 2024).
